The assay concerns the target human α-thrombin (Homo sapiens, UniProt P00734). The experiment in a line: Kinetics of substrate hydrolysis by proteolytic enzyme (initial rates, centrifugal analyzer, Hanes plot). In kind it is biochemical. Particulars: substrate for human α-thrombin.

Square brackets hold non-standard residues; d marks the D form. Peptide text beside a SMILES is read from it. * marks the point of attachment. SBn = c1ccc(CS*)cc1

Our source for the Km and kcat values is patent US4434096A, “Substrates for the quantitative determination of proteolytic enzymes” (E. I. Du Pont de Nemours and Company, priority 1981, dated 1984).

Description: The Michaelis-Menten constant, Km, is a kinetic parameter related to the affinity of a substrate for an enzyme under a given set of reaction conditions. The Km is defined as the substrate concentration at which the initial reaction velocity is one-half of the maximal initial reaction velocity. The maximal velocity (vmax), another important kinetic parameter, when divided by the enzyme concentration, yields kcat. The determination of Km and kcat for a given substrate with various enzymes allows the determination of the selectivity of that substrate for a given enzyme.
Km and vmax values can be determined by utilizing a centrifugal analyzer (GEMSAEC system, available from Electro-Nucleonics, Inc., Fairfield, N.J.) to measure the initial rates of substrate hydrolysis by the proteolytic enzyme. Five substrate concentrations ([S]), ranging from about one-fifth to five times the expected Km, can be used for triplicate determinations in this centrifugal analyzer. The initial reaction rates (v) can then be plotted in a Hanes plot, [S]/v versus [S], for a determination of Km (the absolute value of the X-intercept) and vmax (the reciprocal of the slope) through linear regression analysis. Alternative procedures are available for the calculation of Km and vmax.
For a given enzyme, lower Km values for a series of substrates indicate higher affinity of the substrate to the enzyme. This allows the utilization of lesser amounts of substrate while still operating at vmax.

Consider `CC(C)C[C@H](NC(=O)[C@H](N)C(C)C)C(=O)N[C@@H](CCCCN)C(=O)SCc1ccccc1` [H--D-Val--Leu--Lys--S--Bzl] (H-[dV]-Leu-Lys-SBn), for which the Michaelis-Menten constant (Km) worked out at 16 µM and the kcat was found to be 94 s⁻¹.

As for `NCCCC[C@H](NC(=O)OCc1ccccc1)C(=O)SCc1ccccc1` [Z--Lys--S--Bzl], the Km came to 38 µM and the kcat worked out at 84 s⁻¹.

One may read the Km as the substrate concentration at which the rate is half of its maximum. What is called kcat is the number of substrate molecules converted per active site and unit of time at saturation.
